In ChEMBL document CHEMBL1201862, “PubChem BioAssay data set” (2004):
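Dose response: 5 concentrations. Exposure: 48 h. Format: 96-well plates. Endpoint: linear interpolation; highest concentration if not reached. Abbreviation: GI50, concentration required for 50% inhibition of growth.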 The source made the active and inactive calls. Cut-off read from the data, not from the text of the source: active = GI50 up to about 1.1 µM and inactive = higher.

Columns and labels:
Experiment in all cases: NCI tumour cell line growth inhibition, 48 h
Hs-578T = system: Hs-578T
U-251 = system: U-251
SK-MEL-28 = system: SK-MEL-28
SK-OV-3 = system: SK-OV-3
EKVX = system: EKVX
MDA-N = system: MDA-N
OVCAR-3 = system: OVCAR-3
ACHN = system: ACHN
MCF7 = system: MCF7
MDA-MB-231 = system: MDA-MB-231
SN12C = system: SN12C
UO-31 = system: UO-31
TK-10 = system: TK-10
NCI-H23 = system: NCI-H23
SF-295 = system: SF-295
UACC-62 = system: UACC-62
HT-29 = system: HT-29
SF-268 = system: SF-268
NCI/ADR-RES = system: NCI/ADR-RES
SNB-75 = system: SNB-75

Row | SMILES | GI50 (Hs-578T) | GI50 (U-251) | GI50 (SK-MEL-28) | GI50 (SK-OV-3) | GI50 (EKVX) | GI50 (MDA-N) | GI50 (OVCAR-3) | GI50 (ACHN) | GI50 (MCF7) | GI50 (MDA-MB-231) | GI50 (SN12C) | GI50 (UO-31) | GI50 (TK-10) | GI50 (NCI-H23) | GI50 (SF-295) | GI50 (UACC-62) | GI50 (HT-29) | GI50 (SF-268) | GI50 (NCI/ADR-RES) | GI50 (SNB-75)
1 | CN1CC2=C(N=C(S)NC2c2ccccc2Cl)/C(=C/c2ccccc2Cl)C1 (stereo not given) | > 100 µM (inactive) | 80.5 µM (inactive) | > 100 µM (inactive) | > 100 µM (inactive) | 43.2 µM (inactive) | 60.3 µM (inactive) | 21.5 µM (inactive) | 25.1 µM (inactive) | > 100 µM (inactive) | 26.2 µM (inactive) | 46.2 µM (inactive) | 25.6 µM (inactive) | 71.3 µM (inactive) | 43.2 µM (inactive) | 53.5 µM (inactive) | 14.7 µM (inactive) | 30.8 µM (inactive) | 95.9 µM (inactive) | 30.5 µM (inactive) | 3.33 µM (inactive)
2 | O=C1C(=Cc2ccccc2[N+](=O)[O-])N=C(c2ccccc2)N1n1c(-c2ccccc2)nc2ccccc2c1=O | 20.6 µM (inactive) | 30 µM (inactive) | 30.9 µM (inactive) | 40.7 µM (inactive) | 33.4 µM (inactive) | 36.4 µM (inactive) | 29 µM (inactive) | 30.8 µM (inactive) | 17.5 µM (inactive) | 27.6 µM (inactive) | 23 µM (inactive) | 32.4 µM (inactive) | > 100 µM (inactive) | 20.2 µM (inactive) | 30.9 µM (inactive) | 19.1 µM (inactive) | 32.1 µM (inactive) | 30.3 µM (inactive) | 23.2 µM (inactive) | 35.6 µM (inactive)
3 | CC(C)(Cl)C(Br)CC/C(=C/CCl)CBr.CC(C)(Cl)C(Br)CC/C(=C\CCl)CBr (stereo not given) | 3.67 µM (inactive) | 2.21 µM (inactive) | 2.06 µM (inactive) | 16.9 µM (inactive) | 8.97 µM (inactive) | 1.64 µM (inactive) | 1.87 µM (inactive) | 2.77 µM (inactive) | 0.733 µM (active) | 1.74 µM (inactive) | 2.49 µM (inactive) | 1.6 µM (inactive) | 2.26 µM (inactive) | 1.91 µM (inactive) | 3.51 µM (inactive) | 1.93 µM (inactive) | 1.85 µM (inactive) | 1.8 µM (inactive) | 3.23 µM (inactive) | 2.9 µM (inactive)
